{"source": "paper PMC5289892", "about": "(ACS chemical biology, 2016)", "key": {"[1]": {"target": "T1, mouse COX-2 (Mus musculus, UniProt Q05769)", "T1 sequence (Q05769 18-604)": "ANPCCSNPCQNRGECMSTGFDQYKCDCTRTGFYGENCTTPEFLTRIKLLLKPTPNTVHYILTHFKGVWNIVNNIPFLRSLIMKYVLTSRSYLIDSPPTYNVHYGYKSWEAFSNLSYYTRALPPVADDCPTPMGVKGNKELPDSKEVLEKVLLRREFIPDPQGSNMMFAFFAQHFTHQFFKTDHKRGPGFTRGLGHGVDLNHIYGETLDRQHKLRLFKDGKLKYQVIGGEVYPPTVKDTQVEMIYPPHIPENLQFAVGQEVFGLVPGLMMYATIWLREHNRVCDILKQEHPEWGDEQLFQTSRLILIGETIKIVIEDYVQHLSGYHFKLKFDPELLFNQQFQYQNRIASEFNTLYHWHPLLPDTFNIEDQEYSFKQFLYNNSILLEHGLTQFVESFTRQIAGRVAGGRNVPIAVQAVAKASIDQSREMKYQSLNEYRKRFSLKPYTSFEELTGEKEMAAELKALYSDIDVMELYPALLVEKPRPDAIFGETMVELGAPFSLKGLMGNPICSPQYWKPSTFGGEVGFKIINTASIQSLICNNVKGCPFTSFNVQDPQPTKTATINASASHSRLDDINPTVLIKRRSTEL", "experiment": "Purified COX-2 enzyme inhibition assay", "assay_type": "biochemical"}, "[2]": {"tested_on": "1483 HNSCC xenografts", "experiment": "In vivo tumor growth, 1483 HNSCC xenografts", "details": "1483 xenograft-bearing nude mice, daily intraperitoneal, 14 days"}, "[3]": {"target": "T2, ovine COX-1 (Ovis aries, UniProt P05979)", "T2 sequence (P05979 25-600)": "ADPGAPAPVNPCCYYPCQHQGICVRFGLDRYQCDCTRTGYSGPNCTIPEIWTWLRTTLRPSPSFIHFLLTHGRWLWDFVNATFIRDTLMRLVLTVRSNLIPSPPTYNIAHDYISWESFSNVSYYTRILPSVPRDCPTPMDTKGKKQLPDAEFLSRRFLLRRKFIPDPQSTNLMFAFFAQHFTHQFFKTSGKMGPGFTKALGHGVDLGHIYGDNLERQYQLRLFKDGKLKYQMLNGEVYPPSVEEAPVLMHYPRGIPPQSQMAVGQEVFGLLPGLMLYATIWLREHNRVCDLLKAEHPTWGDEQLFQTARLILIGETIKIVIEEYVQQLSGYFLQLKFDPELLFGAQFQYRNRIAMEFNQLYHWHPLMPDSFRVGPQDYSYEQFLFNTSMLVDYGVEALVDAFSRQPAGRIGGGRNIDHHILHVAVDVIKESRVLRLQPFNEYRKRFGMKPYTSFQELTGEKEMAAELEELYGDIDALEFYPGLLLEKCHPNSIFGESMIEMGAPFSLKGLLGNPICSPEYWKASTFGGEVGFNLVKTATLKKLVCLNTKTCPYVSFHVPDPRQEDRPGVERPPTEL", "experiment": "Purified COX-1 enzyme inhibition assay", "assay_type": "biochemical"}, "[4]": {"tested_on": "1483 HNSCC cells", "experiment": "Cell viability assay", "assay_type": "cell-based, human", "details": "48 h"}, "[5]": {"experiment": "Animal weight in xenograft-bearing mice", "details": "1483 xenograft-bearing mice, 14 days treatment"}, "[6]": {"tested_on": "primary human mammary epithelial cells (HMEC)", "experiment": "Cell viability assay", "assay_type": "cell-based", "details": "48 h, read-out: EC50 cytostatic effect"}, "[7]": {"tested_on": "1483 HNSCC cells", "experiment": "Reversibility of inhibition of 1483 cell growth", "assay_type": "cell-based, human", "details": "1483 cells"}}, "note": "pEC50: −log10 of the molar value.", "data": [{"smiles": "COc1cc([C@@H]2c3cc4c(cc3[C@H](O)[C@H]3COC(=O)[C@H]23)OCO4)cc(OC)c1OC", "note": "[Podophyllotoxin]", "values": [{"measurement": "COX-2 inhibition, in words", "setting": "[1]", "result": "inactive"}, {"measurement": "effect on tumor growth", "setting": "[2]", "result": "no effect on tumor size"}, {"measurement": "COX-1 inhibition, in words", "setting": "[3]", "result": "inactive"}, {"measurement": "lowest cell number reached, % of vehicle-treated cultures", "setting": "[4]; 1483 cells", "result": "~ 35%"}, {"measurement": "pEC50", "setting": "[4]; Homo sapiens, read-out: EC50 reduction in cell number", "result": 7.21}, {"measurement": "effect on animal weight", "setting": "[5]", "result": "decrease in animal weight"}, {"measurement": "pEC50", "setting": "[6]", "result": 6.44}, {"measurement": "effect of washout on reduction in cell number", "setting": "[7]; 10 μM for 5 h, washout, further 72 h", "result": "significant recovery of cell number"}, {"measurement": "reduction of total cell number", "setting": "[7]; 10 μM, 72 h", "result": "~ 80%"}]}]}
